From ChEMBL document CHEMBL1201861, “Genomics of Drug Sensitity in Cancer screening data, Wellcome Trust Sanger Institute” come the findings set out here.

For assay [1], the system named is Caov-4. Briefly: cells. It is filed as functional, cell-based. As to conditions: Homo sapiens.
Description: SANGER: Inhibition of human Caov-4 cell growth in a cell viability assay.
In assay [2] the test system is DMS-53. Description: cells. The format is functional, cell-based, Homo sapiens.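 Also: cell viability assay measuring growth inhibition of human DMS-53 cells.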
Description: SANGER: Inhibition of human DMS-53 cell growth in a cell viability assay.
For assay [3], the system named is EFE-184. Description: cells. It is filed as functional, cell-based. The note with it: Homo sapiens.
Description: SANGER: Inhibition of human EFE-184 cell growth in a cell viability assay.
In assay [4] the test system is IPC-298. Description: SANGER: Inhibition of human IPC-298 cell growth in a cell viability assay. It is filed as functional, cell-based.
Assay [5] has as its system NCI-H838. Briefly: cells. The note with it: Homo sapiens. The format is functional, cell-based.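 Also: growth inhibition of human NCI-H838 cells, read out by a cell viability assay.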
Description: SANGER: Inhibition of human NCI-H838 cell growth in a cell viability assay.
The subject of assay [6] is CCF-STTG1. Briefly: cells. The note with it: Homo sapiens. The format is functional, cell-based.
Description: SANGER: Inhibition of human CCF-STTG1 cell growth in a cell viability assay.
The subject of assay [7] is EW-12. Description: SANGER: Inhibition of human EW-12 cell growth in a cell viability assay. It is filed as functional, cell-based.
Assay [8] concerns NCI-H1975. Briefly: cells. The format is functional, cell-based. The note with it: Homo sapiens.
Description: SANGER: Inhibition of human NCI-H1975 cell growth in a cell viability assay.
The test system of assay [9] is SK-MEL-5. Description: SANGER: Inhibition of human SK-MEL-5 cell growth in a cell viability assay. The format is functional, cell-based.
The subject of assay [10] is SK-MG-1. Briefly: SANGER: Inhibition of human SK-MG-1 cell growth in a cell viability assay. The format is functional, cell-based.
Assay [11] concerns CP67-MEL. Description: SANGER: Inhibition of human CP67-MEL cell growth in a cell viability assay. It is filed as functional, cell-based.
Assay [12] has as its system CRO-AP2. Description: SANGER: Inhibition of human CRO-AP2 cell growth in a cell viability assay. It is filed as functional, cell-based.
Assay [13] deals with KP-N-RT-BM-1. Description: SANGER: Inhibition of human KP-N-RT-BM-1 cell growth in a cell viability assay. It is filed as functional, cell-based.
Assay [14] concerns NCI-H250. Description: SANGER: Inhibition of human NCI-H250 cell growth in a cell viability assay. The format is functional, cell-based.
In assay [15] the test system is NCI-H378. Description: SANGER: Inhibition of human NCI-H378 cell growth in a cell viability assay. It is filed as functional, cell-based.
The subject of assay [16] is TC-YIK. Briefly: SANGER: Inhibition of human TC-YIK cell growth in a cell viability assay. It is filed as functional, cell-based.

In the case of `CN(c1ncccc1CNc1nc(Nc2ccc3c(c2)CC(=O)N3)ncc1C(F)(F)F)S(C)(=O)=O` [PF-00562271], the IC50 in [1] is greater than 2.56 µM; in assay [2] (Homo sapiens, DMS-53), greater than 2.56 µM; in assay [3], greater than 2.56 µM; in [4], greater than 2.56 µM; in assay [5], greater than 2.56 µM; in [6], greater than 2.56 µM.
As for `CC1=C2C[C@H]3[C@@H](CC=C4C[C@@H](O)CC[C@@]43C)[C@@H]2CC[C@]12O[C@@H]1C[C@H](C)CN[C@H]1[C@H]2C` [CYCLOPAMINE], in assay [7], the IC50 is greater than 16 µM.
As for `Cn1cncc1[C@@](N)(c1ccc(Cl)cc1)c1ccc2c(c1)c(-c1cccc(Cl)c1)cc(=O)n2C` [TIPIFARNIB], the IC50 in assay [2] (Homo sapiens, DMS-53) is greater than 16 µM; in [3], 4.58 µM; in [4], 5.82 µM; in assay [5], greater than 16 µM; in [6], greater than 16 µM.
For the molecule `Cc1cc([C@@H](C)Nc2ccccc2C(=O)O)c2nc(N3CCOCC3)cc(=O)n2c1` [AZD-6482], the IC50 in [1] is greater than 5.12 µM; in assay [2] (Homo sapiens, DMS-53), greater than 5.12 µM; in [2] (dms-53) it was greater than 5.12 µM; in assay [3] it was greater than 5.12 µM; in assay [4] it was greater than 5.12 µM; in assay [8] it was greater than 5.12 µM. The IC50 was greater than 5.12 µM in [5], greater than 5.12 µM in assay [9], greater than 5.12 µM in [10] and 1.43 µM in assay [6].
Consider `COc1cc([C@@H]2c3cc4c(cc3[C@@H](O[C@@H]3O[C@@H]5CO[C@@H](C)O[C@H]5[C@H](O)[C@H]3O)[C@H]3COC(=O)[C@H]23)OCO4)cc(OC)c1O` [ETOPOSIDE], for which the IC50 in assay [1] was greater than 16 µM; in assay [2] (Homo sapiens, DMS-53) it was greater than 16 µM; in [3], greater than 16 µM; in assay [4] it was 4.33 µM; in assay [5] it was greater than 16 µM; in [6], 6.91 µM.
Take `CN1CCN(CCOc2cc(OC3CCOCC3)c3c(Nc4c(Cl)ccc5c4OCO5)ncnc3c2)CC1` [SARACATINIB]: the IC50 in [11], in assay [12], in assay [7] and in [13] was greater than 2 µM in each case.
In assay [7], `CS(=O)(=O)CCNCc1ccc(-c2ccc3ncnc(Nc4ccc(OCc5cccc(F)c5)c(Cl)c4)c3c2)o1` [LAPATINIB] showed an IC50 greater than 2 µM.
On to `CCc1nc(N)nc(N)c1-c1ccc(Cl)cc1` [PYRIMETHAMINE], for which the IC50 was 18.7 µM in assay [12] and greater than 20 µM in assay [7].
As to `CNC(=O)c1cc(Oc2ccc(NC(=O)Nc3ccc(Cl)c(C(F)(F)F)c3)cc2)ccn1` [SORAFENIB], the IC50 in assay [12] and in [7] was greater than 4 µM throughout.
Regarding `C[C@]1(O)C[C@@H](c2nc(-c3ccc4ccc(-c5ccccc5)nc4c3)c3c(N)nccn32)C1` [LINSITINIB], the IC50 in assay [2] (Homo sapiens, DMS-53) was greater than 2.56 µM; in [3] it was greater than 2.56 µM; in assay [4], greater than 2.56 µM; in assay [5], greater than 2.56 µM; in assay [6], greater than 2.56 µM.
As for `CCC1=C[C@@H]2CN(C1)Cc1c([nH]c3ccccc13)[C@@](C(=O)OC)(c1cc3c(cc1OC)N(C)[C@H]1[C@@](O)(C(=O)OC)[C@H](OC(C)=O)[C@]4(CC)C=CCN5CC[C@]31[C@@H]54)C2` [VINORELBINE], the IC50 in [1] was greater than 0.064 µM; in assay [2] (Homo sapiens, DMS-53), greater than 0.064 µM; in assay [3], greater than 0.064 µM; in assay [4] it was 0.0366 µM; in assay [5] it was 0.016 µM; in assay [6], 0.00837 µM.
`Cc1ccc(Nc2nccc(N(C)c3ccc4c(C)n(C)nc4c3)n2)cc1S(N)(=O)=O` [PAZOPANIB]: the IC50 is greater than 8 µM in assay [2] (Homo sapiens, DMS-53); greater than 8 µM in [3]; greater than 8 µM in assay [4]; greater than 8 µM in assay [5]; 1.05 µM in [6].
With `COC(=O)CNC(=O)C(=O)OC`, the IC50 was 181 µM in assay [2] (Homo sapiens, DMS-53); 553 µM in assay [3]; 1670 µM in assay [4]; 1340 µM in assay [5]; greater than 4000 µM in assay [6].
Molecule `Nc1ccn([C@@H]2O[C@H](CO)[C@@H](O)[C@@H]2O)c(=O)n1` [CYTARABINE] yielded an IC50 in assay [8] greater than 2 µM.
As to `O=C(/C=C/c1ccccc1)NC(NC(=S)Nc1cccc2cccnc12)C(Cl)(Cl)Cl` (stereo not drawn) [SALUBRINAL], the IC50 in assay [7] is greater than 16 µM.
On to `C=C1C(=O)O[C@@H]2C3O[C@]3(C)CC/C=C(\C)CC[C@@H]12` (stereo partly drawn), for which the IC50 in assay [7], in [14], in [15] and in [16] was greater than 5 µM in each case.
Take `CO[C@H]1C[C@@H]2CC[C@@H](C)[C@@](O)(O2)C(=O)C(=O)N2CCCC[C@H]2C(=O)O[C@H]([C@H](C)C[C@@H]2CC[C@@H](O)[C@H](OC)C2)CC(=O)[C@H](C)/C=C(\C)[C@@H](O)[C@@H](OC)C(=O)[C@H](C)C[C@H](C)/C=C/C=C/C=C/1C` [SIROLIMUS]: the 50% inhibitory concentration (IC50) in assay [11], in assay [7], in [13] and in assay [16] was greater than 0.1 µM throughout.
For `Cc1cnc(-c2cnc(NCCNc3ccc(C#N)cn3)nc2-c2ccc(Cl)cc2Cl)[nH]1` [LADUVIGLUSIB], the IC50 in [1] is greater than 2.56 µM; in assay [2] (Homo sapiens, DMS-53), greater than 2.56 µM; in assay [3], greater than 2.56 µM; in [4], greater than 2.56 µM; in [5] it was greater than 2.56 µM; in assay [6] it was greater than 2.56 µM.
Consider `C=CCc1cccc(/C=N/NC(=O)CN2CCN(Cc3ccccc3)CC2)c1O` [PAC-1], for which the IC50 in [2] (Homo sapiens, DMS-53) was greater than 2.56 µM; in assay [3], greater than 2.56 µM; in assay [4], greater than 2.56 µM; in assay [5] it was greater than 2.56 µM; in [6], greater than 2.56 µM.
In assay [8], `O=C(NOCC1CC1)c1ccc(F)c(F)c1Nc1ccc(I)cc1Cl` [CI-1040] showed an IC50 of 6.47 µM.
With `CCC(=O)N1CCN(c2ccc(-n3c(=O)ccc4cnc5ccc(-c6cnc7ccccc7c6)cc5c43)cc2C(F)(F)F)CC1` [TORIN1], the results for the IC50 in assay [11], in assay [7] and in [13] were 0.0376 µM, greater than 1.2 µM and greater than 1.2 µM, respectively.
`Cn1cc(C2=C(c3ccc(Cl)cc3Cl)C(=O)NC2=O)c2ccccc21` [SB-216763]: in [8], the IC50 is greater than 10 µM.
`CN(C)C/C=C/C(=O)Nc1cc2c(Nc3ccc(F)c(Cl)c3)ncnc2cc1O[C@H]1CCOC1` [AFATINIB] yielded an IC50 in [8] greater than 0.5 µM.
In the case of `Cc1cc(Nc2cc(N3CCN(C)CC3)nc(Sc3ccc(NC(=O)C4CC4)cc3)n2)n[nH]1` [TOZASERTIB], the IC50 in assay [11], in assay [7] and in [13] was greater than 2 µM in each case.
